Laboratory results from article PMC8386747, “Structure–activity relationship, in vitro and in vivo evaluation of novel dienyl sulphonyl fluorides as selective BuChE inhibitors for the treatment of Alzheimer's disease” (Journal of Enzyme Inhibition and Medicinal Chemistry, 2021).
Entries after “also recorded” stand apart in the source; their conditions may differ.

Tests used:
[1] = system: Aβ1-42; type: in vivo, mouse; settings: mice, Aβ1-42 icv; 10 mg/kg po; vs model group
[2] = target: T1, eqBuChE (Equus caballus, UniProt P81908); assay: Kinetic study of eqBuChE inhibition; type: biochemical, horse
T1 construct: BuChE from equine serum (C4290-1KU; Sigma); purchased Sigma C4290-1KU; host or cells: equine serum
Method: Kinetic studies were performed with the same test conditions, using six concentrations of substrate (0.1‒1 mM) and four concentrations of inhibitor (0‒0.08 mM). The apparent inhibition constants and kinetic parameters were calculated in the “Enzyme Kinetics” module of Prism8. The effect of compound A10 concentration on the catalytic activity of BuChE at 37 °C was investigated. Assay conditions were same as described in the assay protocol except that the final concentration of enzyme was varied (0‒0.72 U/mL). Concentrations of compound A10 were 0, 0.02, 0.04, 0.08 µM respectively, for the determination of reversible as well as irreversible binding of inhibitors at enzyme.

[3] = system: Aβ1-42-induced cognitive dysfunction; assay: Morris water maze in Aβ1-42-induced cognitive impairment model; type: in vivo, mouse; settings: mice, 10 mg/kg po Day 3 to Day 14
Method: All experiments were performed according to the National Institutes of Health Guide for the Care and Use of Laboratory Animals. The Measures for the Care and Treatment of Laboratory Animals were approved by the Animal Care and Use Committee of Anhui Medical University. Male ICR mice were used in the animal centre of Anhui Medical University (Hefei). Male mice (18‒24 g) aged 6‒8 weeks, 10 mice per cage, room temperature 22 ± 2 °C, light/dark (12:12 h) cycle. These animals had access to food and water prior to testing. The ambient temperature and relative humidity (50%) of the room remained consistent throughout all tests. Behavioural experiments: MWM was used for cognitive function, and mice were randomly selected for behavioural experiments. Each experimental group consisted of 8‒10 mice/dose. The experimental time was from 08:00 to 14:00, and the mice were sacrificed by cervical dislocation immediately after the end of the experiment. […]. Aβ1-42 aggregation was induced by dissolving the Aβ1-42 peptide in DMSO as a stock solution of 5 mM and incubating it in saline at a final concentration of 2 mg/mL for 24 h at 37 °C.
The behavioural study was a water maze experimental behavioural study on days 10 − 15, including a 5-day learning and memory training, and a test assessment on day 6. MWM consists of a water-filled pool (grey, circular, 1.20 m in diameter, 0.60 m in height) and a platform with adjustable height and movable position. The pool was divided into four equal quadrants (compass position: NE, NW, SE, SW) using a computerised video tracking system (SMART, version 3.0; Panlab, Spain). The pool was filled with water, generally about 48 cm below the edge, to prevent animals from jumping out, and the water temperature was maintained at 22 ± 1 °C. […] The time to reach the hidden platform (i.e. escape latency), the distance to reach the hidden platform, the distance in the target (NW) area, and the average speed were recorded. […]

[4] = system: human hepatoblastoma cells HepG2; assay: Cytotoxicity MTT assay on HepG2 cells; type: cell-based; settings: 24 h
Method: (§1) The cytotoxic effect was detected by MTT colorimetric assay. Human hepatoblastoma cells HepG2 and human normal hepatocyte L02 were maintained at 37 °C in a 5% humidified incubator containing 10% foetal bovine serum, 100 U/mL penicillin and […] streptomycin. HepG2 cells and L02 cells were seeded in 96-well plates at 1 × 10^4 cells per well. After cell culture for 24 h, different compounds were diluted in DMEM for 24 h. […] of 5 mg/mL MTT reagent was added for incubation for 4 h. After 4 h, the cell culture medium was removed and […] of DMSO was added to dissolve formazan. The optical density was measured at 492 nm (OD492). Cell viability was calculated from three independent experiments. The density of formazan formed in blank group was set as 100% of viability. Cell viability (%) ¼ compound (OD492/blank (OD492) ×100%

[5] = system: ICR mice; assay: In vivo acute toxicity evaluation; set-up: species or system mouse
Method: […]. Compound A10 was suspended in a mixture of DMSO, PEG 400 and physiological saline (10/50/40, v/v/v). After fasting for 8‒12 h, the mice were intragastrically administered with the preparation or test compound A10 1.0 g/kg on the first day. The behaviour, appearance and body weight changes of the mice were observed and recorded for 2 weeks. The body weights of the mice in the control group and experimental group were compared and summarised with GraphPadPrism8.0 software.

[6] = system: male ICR mice; assay: In vivo hepatotoxicity evaluation
Method: The combination was administered intragastrically at a dose of 30 mg/kg body weight and the same amount of vehicle (po). Heparinised serum was collected from the retrobulbar plexus at 8, 22, and 36 h after administration for hepatotoxicity evaluation. The activities of alanine aminotransferase (ALT) and aspartate aminotransferase (AST), indicators of liver injury, were measured with corresponding kits (EF551 and EF550 for ALT, EH027 and EH548 for AST). […] After the last collection of post-globular blood, mice were sacrificed and livers were taken for immunohistochemical morphological observation. We isolated two 3-mm sections of each liver from the hilum to the edge of the left lateral lobe using an ultra-thin semi-automatic microtome (LeicaRM2245, Germany), immediately placed them in 10% buffered formaldehyde, fixed them for 2 days, and embedded them in paraffin blocks using a paraffin-embedding station (LeicaEG1150H, Germany). Subsequently, five µM sections were prepared from these paraffin sections, deparaffinized, stained with haematoxylin and eosin or using the periodic acid-Schiff glycogen staining method.

[7] = target: T2, recombinant human AChE (hAChE) (Homo sapiens, UniProt P22303); assay: hAChE inhibition assay (Ellman's assay); type: biochemical
T2 construct: purchased Sigma C1682
Method: The solution was diluted to 5 concentrations of 200, 100, 10, 1 and 0.1 µM in ethanol. Measurements were performed using 96-well plates. Buffer (40 µL), sample at a series of concentrations (10 µL), AChE (10 µL), and dibutyl succinate (20 µL) were successively added. The mixture was then incubated for 5 min at 37 °C. Then, 20 µL of ACh or BuCh were added and the reaction started. […] For the blank value, 10 µL of water was used instead of the inhibitor solution. The activity of the inhibitor was expressed as a logarithmic plot of the percentage of enzyme activity (with 100% as the reference) versus the concentration of the compound. IC50 values were determined graphically from inhibition curves (log inhibitor concentration versus percent inhibition).

[8] = target: T3, AChE from electric eel (Electrophorus electricus, UniProt O42275); assay: EeAChE inhibition assay (Ellman's method); type: biochemical; settings: read-out: AChE % inhibition at 20 µM; AChE from electric eel; 20 µM; na = no inhibitory activity at 20 µM
T3 construct: assays were performed on AChE from electric eel (C3389-500UN; Sigma); purchased Sigma C3389-500UN
Method: (§2) According to the Ellman’s method, assays were performed on AChE from electric eel (C3389-500UN; Sigma) and BuChE from equine serum (C4290-1KU; Sigma). The experiment was performed in 48-well plates in a final volume of 500 µL. Each well contained 0.036 U/mL of eeAChE or eqBuChE, and 0.1 M pH 8 PBS. They were pre-incubated for 20 min at different compound concentrations at 37 °C. […] The DTNB produces the yellow anion 5-thio-2-nitrobenzoic acid along with the enzymatic degradation of ACh or BuCh. Changes in absorbance were measured at 410 nm after 20 min in a PerkinElmer VICTOR Nivo reader. The IC50 values were calculated graphically from inhibition curves (log inhibitor concentration vs percent of inhibition). A control experiment was performed under the same conditions without inhibitor and the blank contained buffer, DMSO, DTNB, and substrate.

[9] = target: T4, BuChE from human serum (hBuChE) (Homo sapiens, UniProt P06276); assay: hBuChE inhibition assay (Ellman's assay); type: biochemical; settings: mean ± SEM
T4 construct: BuChE from human serum (hBuChE); purchased Sigma B4186; host or cells: human serum
Method: DTNB solution (5 µM) was prepared with 0.1 M pH 8 PBS. The test compound was dissolved at a concentration of 2 × 1 0^−1 M in DMSO and stored at temperatures ranging from −20 to 4 °C as a stock solution. The solution was diluted to 5 concentrations of 200, 100, 10, 1 and 0.1 µM in ethanol. Measurements were performed using 96-well plates. Buffer (40 µL), sample at a series of concentrations (10 µL), AChE (10 µL), and dibutyl succinate (20 µL) were successively added. The mixture was then incubated for 5 min at 37 °C. Then, 20 µL of ACh or BuCh were added and the reaction started. […] For the blank value, 10 µL of water was used instead of the inhibitor solution. The activity of the inhibitor was expressed as a logarithmic plot of the percentage of enzyme activity (with 100% as the reference) versus the concentration of the compound. IC50 values were determined graphically from inhibition curves (log inhibitor concentration versus percent inhibition).

[10] = system: human normal hepatocyte L02; assay: Cytotoxicity MTT assay on L02 cells; type: cell-based; settings: 24 h
Method: as §1

[11] = PAMPA-BBB class
Method: (§3) The 96-well UV plate (COSTAR) was manufactured by Corning Corporation, USA, and the commercially available drugs and test compounds were initially dissolved in DMSO at a concentration of 20 mg/mL. The solution was then diluted 200-fold with PBS (pH 7.4 ± 0.1)/EtOH (70/30, v/v) solution to a final concentration of 100 µg/mL.
(§4) The test compound was dissolved in DMSO at 5 mg/mL and diluted 200-fold with universal buffer (final concentration 25 µg/mL) to prepare the secondary stock solution; 200 µL of the secondary stock solution was added to the donor well; the acceptor plate was coated with 4 µL of 20 mg/mL dodecyl porcine polar brain, and then, 200 µL of pH 7.4 universal buffer was added to the acceptor well; the acceptor plate was carefully placed on the donor plate to form a “sandwich” and maintained for 18 h; the drug concentrations in the acceptor, donor and reference wells were determined using a UV microplate reader; the experiment was repeated three times, and the concentrations of the test compound in the donor and acceptor wells were measured using a UV plate spectral reader (PerkinElmer VICT or Nivo, Finland). In at least three independent experiments, each sample was analysed at three wavelengths in a four well.

[12] = target: T5, BuChE from equine serum (Equus caballus, UniProt P81908); assay: eqBuChE inhibition assay (Ellman's method); type: biochemical; settings: BuChE from horse serum; mean ± SEM
T5 construct: BuChE from equine serum (C4290-1KU; Sigma); purchased Sigma C4290-1KU; host or cells: equine serum
Method: as §2

[13] = in vitro; settings: PAMPA, PAMPA-BBB
Method: as §3, §4

[14] = system: PC12 cells; assay: Neuroprotection assay against H2O2 damage; type: cell-based; settings: PC12, 100 µM H2O2 (model 47.3%), not given
[15] = system: BuChE; set-up: method as in PMID 31136894; settings: cited from earlier work
[16] = system: GSK-3β; set-up: method as in PMID 28749667, PMID 26696252; settings: read-out: GSK-3μ IC50; cited from earlier work
[17] = system: BACE-1; set-up: method as in PMID 28749667, PMID 26696252; settings: cited from earlier work
[18] = 30 mg/kg intragastric, 8, 22 and 36 h

T1 sequence (P81908 whole entry): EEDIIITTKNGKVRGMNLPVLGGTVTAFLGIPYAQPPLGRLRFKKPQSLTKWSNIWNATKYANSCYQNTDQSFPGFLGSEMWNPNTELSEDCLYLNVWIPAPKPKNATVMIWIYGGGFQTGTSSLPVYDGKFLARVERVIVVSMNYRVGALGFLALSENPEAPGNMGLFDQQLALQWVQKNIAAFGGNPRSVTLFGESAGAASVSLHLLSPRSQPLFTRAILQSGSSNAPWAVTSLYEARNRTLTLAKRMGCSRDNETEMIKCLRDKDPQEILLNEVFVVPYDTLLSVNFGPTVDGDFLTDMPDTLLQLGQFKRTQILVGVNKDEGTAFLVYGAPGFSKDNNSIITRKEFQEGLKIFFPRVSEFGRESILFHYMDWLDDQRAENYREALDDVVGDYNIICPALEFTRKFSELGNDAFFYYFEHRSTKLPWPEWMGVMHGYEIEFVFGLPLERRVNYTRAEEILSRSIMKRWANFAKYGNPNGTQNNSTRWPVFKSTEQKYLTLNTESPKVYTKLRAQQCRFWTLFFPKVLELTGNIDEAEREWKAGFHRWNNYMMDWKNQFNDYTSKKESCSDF
T4 sequence (P06276 29-602): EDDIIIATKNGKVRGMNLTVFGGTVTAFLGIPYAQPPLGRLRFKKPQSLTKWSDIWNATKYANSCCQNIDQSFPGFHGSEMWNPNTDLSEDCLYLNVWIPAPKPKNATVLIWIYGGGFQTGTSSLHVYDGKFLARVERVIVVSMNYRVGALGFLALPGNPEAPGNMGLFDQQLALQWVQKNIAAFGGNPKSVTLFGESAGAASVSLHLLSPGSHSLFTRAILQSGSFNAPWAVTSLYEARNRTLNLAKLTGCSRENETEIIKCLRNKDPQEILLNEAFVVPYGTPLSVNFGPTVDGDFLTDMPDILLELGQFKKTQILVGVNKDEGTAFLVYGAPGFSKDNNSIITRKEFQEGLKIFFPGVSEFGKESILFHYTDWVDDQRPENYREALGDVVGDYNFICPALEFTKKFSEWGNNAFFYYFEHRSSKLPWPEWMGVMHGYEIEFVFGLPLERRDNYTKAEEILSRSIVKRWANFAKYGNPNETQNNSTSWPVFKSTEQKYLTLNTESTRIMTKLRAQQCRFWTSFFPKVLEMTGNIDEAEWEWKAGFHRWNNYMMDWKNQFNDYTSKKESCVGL
T3 sequence (O42275 24-633): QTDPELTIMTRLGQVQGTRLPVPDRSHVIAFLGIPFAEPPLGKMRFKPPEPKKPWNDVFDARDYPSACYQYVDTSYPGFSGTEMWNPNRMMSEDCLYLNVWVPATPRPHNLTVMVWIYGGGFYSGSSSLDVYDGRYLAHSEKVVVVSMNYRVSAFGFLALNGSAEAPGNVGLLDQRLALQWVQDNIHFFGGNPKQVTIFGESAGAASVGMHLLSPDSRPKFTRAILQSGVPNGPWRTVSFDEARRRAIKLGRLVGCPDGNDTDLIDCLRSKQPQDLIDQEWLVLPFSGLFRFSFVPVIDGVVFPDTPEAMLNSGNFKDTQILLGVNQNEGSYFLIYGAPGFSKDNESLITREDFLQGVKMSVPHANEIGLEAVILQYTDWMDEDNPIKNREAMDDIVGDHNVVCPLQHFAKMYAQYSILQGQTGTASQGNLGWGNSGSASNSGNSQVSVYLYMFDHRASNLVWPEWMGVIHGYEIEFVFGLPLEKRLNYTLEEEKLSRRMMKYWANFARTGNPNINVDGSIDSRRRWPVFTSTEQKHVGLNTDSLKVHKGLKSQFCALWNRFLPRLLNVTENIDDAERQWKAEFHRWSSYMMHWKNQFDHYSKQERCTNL
T2 sequence (P22303 32-614): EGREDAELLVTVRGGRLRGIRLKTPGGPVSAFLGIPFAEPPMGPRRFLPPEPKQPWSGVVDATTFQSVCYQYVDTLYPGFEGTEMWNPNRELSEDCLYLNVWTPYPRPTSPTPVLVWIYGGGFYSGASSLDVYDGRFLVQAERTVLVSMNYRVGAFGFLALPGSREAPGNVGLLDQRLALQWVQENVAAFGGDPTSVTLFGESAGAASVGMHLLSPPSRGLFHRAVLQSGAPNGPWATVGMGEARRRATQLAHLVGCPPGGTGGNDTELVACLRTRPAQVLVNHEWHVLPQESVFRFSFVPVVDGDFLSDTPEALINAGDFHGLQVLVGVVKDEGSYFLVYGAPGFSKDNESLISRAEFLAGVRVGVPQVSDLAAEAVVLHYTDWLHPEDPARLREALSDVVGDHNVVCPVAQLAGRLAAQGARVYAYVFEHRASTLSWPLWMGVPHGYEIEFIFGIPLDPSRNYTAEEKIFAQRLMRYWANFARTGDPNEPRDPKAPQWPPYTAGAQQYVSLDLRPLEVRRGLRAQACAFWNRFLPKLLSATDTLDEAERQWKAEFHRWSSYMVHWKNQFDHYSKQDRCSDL
T5 sequence (P81908 whole entry): as the sequence (P81908 whole entry) above

In the case of `COc1ccccc1C=CC=C(Br)S(=O)(=O)F` [Compound A10], the “decrease of brain Aβ1-42 peptides” value [1] is reported as 20.6%, the “type of BuChE inhibition” value ([2]; Lineweaver–Burk plot, eqBuChE) is reported as “mixed competitive; also recorded: mixed inhibition” and the “reversibility of BuChE inhibition” value ([2]; enzyme activity vs enzyme concentration, 0–0.08 µM inhibitor) is reported as “reversible”. The Ki ([2]; eqBuChE, Lineweaver–Burk secondary plot, read-out: dissociation constant Ki) was 29 nM, the “body weight gain during treatment” value [3] was “did not affect” and the “effect on Aβ1-42-induced cognitive dysfunction (MWM)” value ([3]; Aβ1-42 10 µg icv, 10 mg/kg) was “significantly improved; also recorded: improved the cognitive impairment”. For the same compound, the cell survival rate ([4]; 50 µM) was 85.6%, the cell survival rate ([4]; 10 and 25 µM) was “did not decrease” and the “general condition, appearance and activity” value ([5]; 1.0 g/kg intragastric) was “no significant change in appearance and activity”. The “difference of body weight changes vs vehicle group” value ([5]; ICR mice, 1.0 g/kg intragastric, 14 days) was “not significant”, the tolerability in vivo ([5]; ICR mice, single intragastric dose 1.0 g/kg, 14 days) was “well tolerated” and the “serum ALT vs vehicle group” value [6, 18] was “no significant difference”. The “serum AST vs vehicle group” value [6, 18] was “no significant difference”, the liver histomorphology ([6]; 30 mg/kg, 36 h after administration) was “didn’t show central necrosis or significant steatosis” and the inhibition at 20 µM [7] was 49.7 ± 2.7%. The inhibition at 20 µM [8] was 40.8 ± 3.3%, the IC50 [9] was 3620 ± 320 nM and the cell survival rate ([10]; 50 µM) was 87.1%. For the same compound, the cell survival rate ([10]; 10 and 25 µM) was “did not decrease”, the BBB penetration [11] was “CNS+ (“CNS +” (high BBB permeation): Pe (× 10^‒6 cm/s) >4.0)” and the IC50 [12] was 21 nM. It also gave a Papp ([13]; pH 7.4, Pe) of 13.7 ×10⁻⁶ cm/s, a Papp ([13]; pH 7.4, Pe×10^-6cm/s Exp. value, three independent experiments) of 13.4 ×10⁻⁶ cm/s and a cell survival rate ([14]; first (lower) of the A10 concentrations) of 63.3%. It also gave a cell survival rate ([14]; second (higher) of the A10 concentrations) of 71.8%.

For `O=C1c2cc(NS(=O)(=O)c3ccccc3OC(F)(F)F)ccc2NC2C3Nc4ccccc4C3CCN12` (stereo not shown) [Rutaecarpine-6n], the IC50 [15] is given as 3600 nM.

For `COc1cc(/C=C/C(O)=C/C(=O)/C=C/c2ccc(OCc3ccccc3)cc2)ccc1O` [curcumin derivative], the IC50 [16] is given as 900 nM and the IC50 [17] is given as 970 nM.
